# Measured values: PubChem BioAssay (NCI)
#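 These data come from cells grown in 96-well plates and exposed to compound for 48 hours at five concentrations. GI50 = concentration required for 50% inhibition of growth. TGI denotes the concentration required for complete inhibition of growth.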
# Tested on: OVCAR-8 ovarian
# Assay: DTP human tumour cell line panel, 48 h
Compound,GI50 [µM],TGI [µM]
O=C(CCN1CCOCC1)Nc1cccc(-n2cc(-c3ccncc3)c(-c3ccc(Cl)c(O)c3)n2)c1,3.71,57.5
C=C(C)[C@@H]1CC[C@]2(C)[C@H](CC[C@@H]3[C@@H]([C@@](C)(O)CCC=C(C)C)CC[C@]32C)[C@@]1(C)CCC(=O)O,19,43
Cn1cc(S(=O)(=O)N2CCC3=Cc4c(cnn4-c4ccc(F)cc4)C[C@]3(C(=O)c3cc(C(F)(F)F)ccn3)C2)cn1,> 100,> 100
c1ccc(NCCSc2nc3ccccc3s2)cc1,–,> 100
Oc1ccc(Oc2cnc3ccccc3n2)cc1,> 100,> 100
Cc1ccc2occ/c(=N\Nc3ccccc3)c2c1,–,> 100
CC(=O)NC1CONC1=O (stereo not given),–,> 100
Oc1ccc(N=Nc2nccs2)c(O)c1,3.75,23
COc1ccc2c(c1)C(C)Cc1c(ncnc1-n1cnc3ccccc31)N2C (stereo not given),0.959,87.4
COc1ccc(-c2noc(N)c2-c2cc(OC)c3c(c2)OCO3)cc1,3.98,> 100
CC(Cl)CN1c2ccccc2Sc2ccc(Cl)cc21 (stereo not given),–,> 10
NCCCn1c2c(c3ccccc3c1=O)C(=O)c1ccccc1-2,0.0658,1.32
O=C1c2ccccc2C(=O)c2c(NCCN=Cc3ccccc3O)cccc21,4.93,22.1
Oc1ccc(/C=C/c2cc(O)cc3c2C(c2cc(O)cc(O)c2)C(c2ccc(O)c(O)c2)O3)cc1 (stereo not given),–,68.2
CC1(C)N=C(N)N=C(N)N1c1cccc(OCCOc2cccc([N+](=O)[O-])c2)c1,38.6,> 100
COc1ccc(/C=C/c2cnccn2)cc1OC,–,> 10

Compound,GI50 [µM],TGI [µM]
O=C(NC1CCCCC1)c1ccc(Nc2ncnc3c2cnn3-c2ccccc2)cc1,3.87,19.3
N#CC(C#N)=C1CCCOc2c1ccc1ccccc21,> 100,> 100
CCc1nc(Cl)c(Cl)c(Cl)n1,–,> 100
O=[N+]([O-])c1ccc(Sc2c3ccccc3nc3ccccc23)cn1,–,52.5
COc1cc2c3c(n(CCCN(C)CCO)c(=O)c2cc1OC)-c1cc2c(cc1C3=O)OCO2,13.9,> 78.8
C=CCn1c(SCC(=O)Nc2ccc(C(=O)/C=C/c3cc(OC)c(OC)c(OC)c3)cc2)nnc1-c1ccc(OC)cc1,0.755,10
N#Cc1c(-c2ccco2)cc(-c2ccc(N)cc2)[nH]c1=O,–,> 100
C=C1C(O)C2C(=C(C)C13CC3)C(=O)C(C)(C)C2OC (stereo not given),71.9,> 100
COc1cc(C(=O)O[C@H](C(N)=O)[C@]2(C)CO2)c2cccc(C)c2c1,< 0.01,0.438
C=C1C(=O)OC2C1CC(OC(C)=O)/C(C)=C/CCC1(C)OC21 (stereo not given),–,> 100
Cc1sc2c(c1C)C(c1ccc(Cl)cc1)=N[C@@H](CC(=O)Nc1ccc(OCCOCCOCCOCCNc3cccc4c3C(=O)N(C3CCC(=O)NC3=O)C4=O)cc1)c1nnc(C)n1-2 (stereo not given in full),< 0.0193,> 100
COc1cc(/C=C/C(=O)C(C(=O)/C=C/c2ccc(OC(=O)CCNC34CC5CC(CC(C5)C3)C4)c(OC)c2)C(=O)CCNC23CC4CC(CC(C4)C2)C3)ccc1OC(=O)CCNC12CC3CC(CC(C3)C1)C2 (stereo not given),1.62,5.18
CC(=O)[CH-]C(=O)c1ccccc1.CC(=O)[CH-]C(=O)c1ccccc1.O=S(=O)([O-])c1cc([O-])c2c([O-])cc(S(=O)(=O)[O-])cc2c1.[Na+].[Ti+4],> 100,> 100
Cc1cc(NCCCCNc2ccnc3cc(Cl)ccc23)nc(Nc2ccc(C(=O)N3CCCCC3)cc2)n1,2.34,5.49
Cc1c2c(C(N)=O)nccc2c(C)c2c1c1ccccc1n2Cc1ccccc1,–,31.3

# Tested on: COLO 205 colon
# Assay: DTP human tumour cell line panel, 48 h
Compound,GI50 [µM],TGI [µM]
COc1ccc(-c2nn(-c3cccc(Cl)c3)cc2-c2nc(N)[nH]c(=O)c2C#N)cc1,7.65,20.9
COC(=O)C(=O)CC(=O)c1cccc(OC)c1,–,> 100
COc1cc2c3c(n(CCCN(CCO)CCO)c(=O)c2cc1OC)-c1cc2c(cc1C3=O)OCO2,0.218,12.7
CNCCn1c(=O)c2cc(OC)c(OC)cc2c2cnc3cc4c(cc3c21)OCO4,0.0304,2.06
O=C(CCN1CCOCC1)Nc1cccc(-n2cc(-c3ccncc3)c(-c3ccc(Cl)c(O)c3)n2)c1,1.66,4.27
C=C(C)[C@@H]1CC[C@]2(C)[C@H](CC[C@@H]3[C@@H]([C@@](C)(O)CCC=C(C)C)CC[C@]32C)[C@@]1(C)CCC(=O)O,17.7,35.6
Cn1cc(S(=O)(=O)N2CCC3=Cc4c(cnn4-c4ccc(F)cc4)C[C@]3(C(=O)c3cc(C(F)(F)F)ccn3)C2)cn1,> 100,> 100
c1ccc(NCCSc2nc3ccccc3s2)cc1,–,41.8
Oc1ccc(Oc2cnc3ccccc3n2)cc1,> 100,> 100
Cc1ccc2occ/c(=N\Nc3ccccc3)c2c1,–,> 100
CC(=O)NC1CONC1=O (stereo not given),–,> 100
Oc1ccc(N=Nc2nccs2)c(O)c1,3.21,12
COc1ccc2c(c1)C(C)Cc1c(ncnc1-n1cnc3ccccc31)N2C (stereo not given),0.33,1.37
COc1ccc(-c2noc(N)c2-c2cc(OC)c3c(c2)OCO3)cc1,2.34,9.41
CC(Cl)CN1c2ccccc2Sc2ccc(Cl)cc21 (stereo not given),–,> 10
NCCCn1c2c(c3ccccc3c1=O)C(=O)c1ccccc1-2,0.105,2.88

Compound,GI50 [µM],TGI [µM]
O=C1c2ccccc2C(=O)c2c(NCCN=Cc3ccccc3O)cccc21,1.41,3.82
Oc1ccc(/C=C/c2cc(O)cc3c2C(c2cc(O)cc(O)c2)C(c2ccc(O)c(O)c2)O3)cc1 (stereo not given),–,45.1
CC1(C)N=C(N)N=C(N)N1c1cccc(OCCOc2cccc([N+](=O)[O-])c2)c1,2.13,> 100
COc1ccc(/C=C/c2cnccn2)cc1OC,–,> 10
O=C(NC1CCCCC1)c1ccc(Nc2ncnc3c2cnn3-c2ccccc2)cc1,12.5,> 100
N#CC(C#N)=C1CCCOc2c1ccc1ccccc21,> 100,> 100
O=[N+]([O-])c1ccc(Sc2c3ccccc3nc3ccccc23)cn1,–,10.4
COc1cc2c3c(n(CCCN(C)CCO)c(=O)c2cc1OC)-c1cc2c(cc1C3=O)OCO2,12.6,> 100
C=CCn1c(SCC(=O)Nc2ccc(C(=O)/C=C/c3cc(OC)c(OC)c(OC)c3)cc2)nnc1-c1ccc(OC)cc1,0.399,3.83
C=C1C(O)C2C(=C(C)C13CC3)C(=O)C(C)(C)C2OC (stereo not given),95.6,> 100
COc1cc(C(=O)O[C@H](C(N)=O)[C@]2(C)CO2)c2cccc(C)c2c1,–,11.4
COc1ccc(-c2ccc(NNC(=O)c3ccc(F)cc3)nn2)cc1OC,> 100,> 100
C=C1C(=O)OC2C1CC(OC(C)=O)/C(C)=C/CCC1(C)OC21 (stereo not given),–,> 100
Cc1sc2c(c1C)C(c1ccc(Cl)cc1)=N[C@@H](CC(=O)Nc1ccc(OCCOCCOCCOCCNc3cccc4c3C(=O)N(C3CCC(=O)NC3=O)C4=O)cc1)c1nnc(C)n1-2 (stereo not given in full),< 0.0279,> 82.4
COc1cc(/C=C/C(=O)C(C(=O)/C=C/c2ccc(OC(=O)CCNC34CC5CC(CC(C5)C3)C4)c(OC)c2)C(=O)CCNC23CC4CC(CC(C4)C2)C3)ccc1OC(=O)CCNC12CC3CC(CC(C3)C1)C2 (stereo not given),4.27,17.8
Cc1cc(NCCCCNc2ccnc3cc(Cl)ccc23)nc(Nc2ccc(C(=O)N3CCCCC3)cc2)n1,1.76,3.51

# Tested on: A498 renal
# Assay: DTP human tumour cell line panel, 48 h
Compound,GI50 [µM],TGI [µM]
COc1ccc(-c2nn(-c3cccc(Cl)c3)cc2-c2nc(N)[nH]c(=O)c2C#N)cc1,1.47,6.75
COC(=O)C(=O)CC(=O)c1cccc(OC)c1,–,> 100
COc1cc2c3c(n(CCCN(CCO)CCO)c(=O)c2cc1OC)-c1cc2c(cc1C3=O)OCO2,< 0.01,0.345
